How the values were obtained:
[1] = system: Smn protein; experiment: Smn protein assay in cultured cells (SMN HTRF); assay type: cell-based, human; details: 48 hours; for EC1.5x (concentration giving 1.5-fold Smn protein increase): SMA Type 1 patient fibroblast cells (GM03813), 7-point concentration curve, SMN HTRF, concentration producing 1.5 times Smn protein vs DMSO vehicle control, read-out: EC1.5x for Smn protein expression; for maximum fold (Fold) increase of Smn protein: SMA patient fibroblast cells, 7-point concentration data, fold increase relative to vehicle control (SMN HTRF)
Procedure, shortened: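 Smn in SMA fibroblast lysates, measured by anti-SMN HTRF after 48 h compound exposure; EC1.5x from fold change over vehicle.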

[2] = system: SMN2 minigene (full length SMN2 minigene mRNA containing SMN2 exon 7); experiment: SMN2 minigene mRNA splicing RT-qPCR assay in cultured cells; assay type: cell-based, human; details: Homo sapiens, HEK293-H; HEK293H cells stably transfected with SMN2-A minigene; 24 hours; 7-point concentration curve; 1.5-fold relative to vehicle-treated cells; read-out: EC1.5x for production of full length SMN2 mRNA
Procedure, shortened: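 Lysates → one-step RT-qPCR, minigene-specific primers (0.4 μM final) + GAPDH multiplex, 40 cycles. FL/GAPDH vs DMSO; EC1.5x, star-binned.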

melting point | SMILES | EC1.5x (concentration giving 1.5-fold Smn protein increase) [1] | maximum fold (Fold) increase of Smn protein [1] | EC (1.5-fold) [2]
190 to 196 °C | Cc1cn2cc(-c3cc4ccc(O[C@@H]5CCN(CCO)C5)cc4oc3=O)nc2c(C)n1 [Compound 892, 3-(6,8-dimethylimidazo[1,2-a]pyrazin-2-yl)-7-{[(3R)-1-(2-hydroxyethyl)pyrrolidin-3-yl]oxy}-2H-chromen-2-one] | < 300 nM | **** (fold increase between >1.5 and ≤1.65) | < 0.1 µM
244 to 246 °C | Cc1cn2cc(-c3cc4ccc(N5CC[C@H](N(C)C)C5)cc4oc3=O)nc2c(C)n1 [Compound 691, 7-[(3S)-3-(dimethylamino)pyrrolidin-1-yl]-3-(6,8-dimethylimidazo[1,2-a]pyrazin-2-yl)-2H-chromen-2-one] | < 300 nM | **** (fold increase between >1.5 and ≤1.65) | < 0.1 µM
193 to 195 °C | CCN1CC[C@@H](Oc2ccc3cc(-c4cn5cc(C)nc(C)c5n4)c(=O)oc3c2)C1 [Compound 890, 3-(6,8-dimethylimidazo[1,2-a]pyrazin-2-yl)-7-{[(3R)-1-ethylpyrrolidin-3-yl]oxy}-2H-chromen-2-one] | < 300 nM | ***** (fold increase >1.65) | < 0.1 µM
190 to 196 °C | CCN(C)CCOc1ccc2cc(-c3cn4cc(C)nc(C)c4n3)c(=O)oc2c1 [Compound 937, 3-(6,8-dimethylimidazo[1,2-a]pyrazin-2-yl)-7-{2-[ethyl(methyl)amino]ethoxy}-2H-chromen-2-one] | < 300 nM | ***** (fold increase >1.65) | < 0.1 µM

More lines, now with the values behind:

SMILES | melting point | EC1.5x (concentration giving 1.5-fold Smn protein increase) [1] | maximum fold (Fold) increase of Smn protein [1] | EC (1.5-fold) [2]
C[C@@H]1CN(c2ccc3cc(-c4cn5cc(Cl)ccc5n4)c(=O)oc3c2)C[C@H](C)N1 [Compound 105, 3-(6-chloroimidazo[1,2-a]pyridin-2-yl)-7-[(3R,5S)-3,5-dimethylpiperazin-1-yl]-2H-chromen-2-one] | 220 to 225 °C | 300 to 1000 nM | **** (fold increase between >1.5 and ≤1.65) | 1 to 3 µM
Cc1cn2cc(-c3cc4ccc(CN(C)C)cc4oc3=O)nc2c(C)n1 [Cpd 846, 7-[(dimethylamino)methyl]-3-(6,8-dimethylimidazo[1,2-a]pyrazin-2-yl)-2H-chromen-2-one] | 192 to 196 °C | 300 to 1000 nM | ***** (fold increase >1.65) | 0.1 to 0.3 µM
Cc1nccn2cc(-c3cc4ccc(N5CCN6CCC[C@@H]6C5)cc4oc3=O)cc12 [Compound 636, 7-[(8aR)-hexahydropyrrolo[1,2-a]pyrazin-2(1H)-yl]-3-(1-methylpyrrolo[1,2-a]pyrazin-7-yl)-2H-chromen-2-one] | 170 to 173 °C |  | ** (fold increase between >1.2 and ≤1.35) | < 0.1 µM
Cc1csc2nc(-c3cc4ccc(N5CCN(C)CC5)cc4oc3=O)cn12 [Compound 185, 3-(3-methylimidazo[2,1-b][1,3]thiazol-6-yl)-7-(4-methylpiperazin-1-yl)-2H-chromen-2-one] | 213 to 216 °C |  | * (maximum fold increase of ≤1.2) | 3 to 30 µM
CN1CCCN(c2ccc3cc(-c4cn5cccnc5n4)c(=O)oc3c2)CC1 [Compound 118, 3-(imidazo[1,2-a]pyrimidin-2-yl)-7-(4-methyl-1,4-diazepan-1-yl)-2H-chromen-2-one] | 252 to 254 °C | < 300 nM | ***** (fold increase >1.65) | 0.1 to 0.3 µM
